# Read-outs that look alike come from different tables or passages of the source.
# How the values were obtained:
# fungal (fACC2) = fungal (fACC2) (UniProt Q00955); details: read-out: fACC2 (in vitro ACC2 Inhibition Assay, IC50), ADP-Glo, 5 nM ACC2, 20 μM ATP, 20 μM acetyl-CoA
# human (hACC2) = human (hACC2) (Homo sapiens, UniProt O00763); experiment: In vitro ACC inhibition assay (ADP-Glo), hACC2; type: biochemical; details: 5 nM ACC2, 20 μM ATP, 20 μM acetyl-CoA
# Description: The detailed procedure is as follows. […] 10 μL ADP glo reagent was added. […] 20 μL kinase detection reagent was added.
# C. krusei = experiment: Antifungal Activity Assay (broth microtiter MIC), C. krusei; type: cell-based, Candida krusei; details: Pichia kudriavzevii, ATCC6258, 48 h
# Description: (§1) Compounds of the present invention were evaluated in an Antifungal Activity Assay. An exemplary procedure for the assay, which measures the susceptibility of various Candida species to antifungal compounds, follows. Compounds to be tested (including fluconazole and amphotericin B) were dissolved in DMSO to obtain a solution having a concentration of 1 mg/mL. These stock solutions were sterile filtered using a 0.22 um nylon syringe filter, then diluted in sterile water to achieve a final concentration of 128 μg/mL.
# (§2) All species were grown from frozen stock by directly plating on to freshly prepared Sabouraud Dextrose agar (BD, Difco) and incubated overnight in ambient air at 35° C. for 24 h. A direct suspension was prepared in RPMI 1640+MOPS (Lonza, Biowhittaker) by taking individual colonies from the overnight cultures using sterile swabs soaked in sterile saline. The concentration of the suspension was determined using pre-determined standard curves. These suspensions were then diluted down to 5×10^3 CFU/mL to achieve a final concentration of 2.5×10^3 CFU/mL once added to the microtiter plate as per CLSI guidelines (M27-A3, Vol. 28 No. 14).
# (§3) Broth microtiter MIC challenge plates were prepared following CLSI guidelines (M27-A3, Vol. 28 No. 14). The original CLSI guidelines focused on reading Candida MICs after 48 h of incubation. As reading after only 24 h offers a clear advantage of patient care, QC limits are being established for all drugs at 24 h. That being said there are no known interpretive breakpoints for amphotericin B at 24 h and the current fluconazole interpretive breakpoints are based on a 48 h reading. The MICs for the test compounds were recorded at 48 h. All MIC determinations were achieved by visually comparing the growth found in the antibiotic challenged wells to that of the growth control.
# C. albicans = experiment: Antifungal Activity Assay (broth microtiter MIC), C. albicans; type: cell-based, Candida albicans; details: Candida albicans, ATCC90028, 48 h
# Description: as §1, §2, §3
# C. parapsilosis = experiment: Antifungal Activity Assay (broth microtiter MIC), C. parapsilosis; type: cell-based, Candida parapsilosis; details: Lodderomyces parapsilosis, ATCC22019, 48 h
# Description: as §1, §2, §3
# [1] = Table 3a, ATCC 6258, 3 replicates, MIC recorded at 48 h, read-out: MIC, C. krusei ATCC 6258
# [2] = Table 3b (additional results), ATCC 6258, 3 replicates, MIC recorded at 48 h, read-out: MIC, C. krusei ATCC 6258
# [3] = Table 3a, ATCC 90028, 3 replicates, MIC recorded at 48 h, read-out: MIC, C. albicans ATCC 90028
# [4] = Table 3b (additional results), ATCC 90028, 3 replicates, MIC recorded at 48 h, read-out: MIC, C. albicans ATCC 90028
# [5] = Table 3a, ATCC 22019, 3 replicates, MIC recorded at 48 h, read-out: MIC, C. parapsilosis ATCC 22019
# [6] = Table 3b (additional results), ATCC 22019, 3 replicates, MIC recorded at 48 h, read-out: MIC, C. parapsilosis ATCC 22019
# fungal (fACC2), sequence (Q00955 whole entry): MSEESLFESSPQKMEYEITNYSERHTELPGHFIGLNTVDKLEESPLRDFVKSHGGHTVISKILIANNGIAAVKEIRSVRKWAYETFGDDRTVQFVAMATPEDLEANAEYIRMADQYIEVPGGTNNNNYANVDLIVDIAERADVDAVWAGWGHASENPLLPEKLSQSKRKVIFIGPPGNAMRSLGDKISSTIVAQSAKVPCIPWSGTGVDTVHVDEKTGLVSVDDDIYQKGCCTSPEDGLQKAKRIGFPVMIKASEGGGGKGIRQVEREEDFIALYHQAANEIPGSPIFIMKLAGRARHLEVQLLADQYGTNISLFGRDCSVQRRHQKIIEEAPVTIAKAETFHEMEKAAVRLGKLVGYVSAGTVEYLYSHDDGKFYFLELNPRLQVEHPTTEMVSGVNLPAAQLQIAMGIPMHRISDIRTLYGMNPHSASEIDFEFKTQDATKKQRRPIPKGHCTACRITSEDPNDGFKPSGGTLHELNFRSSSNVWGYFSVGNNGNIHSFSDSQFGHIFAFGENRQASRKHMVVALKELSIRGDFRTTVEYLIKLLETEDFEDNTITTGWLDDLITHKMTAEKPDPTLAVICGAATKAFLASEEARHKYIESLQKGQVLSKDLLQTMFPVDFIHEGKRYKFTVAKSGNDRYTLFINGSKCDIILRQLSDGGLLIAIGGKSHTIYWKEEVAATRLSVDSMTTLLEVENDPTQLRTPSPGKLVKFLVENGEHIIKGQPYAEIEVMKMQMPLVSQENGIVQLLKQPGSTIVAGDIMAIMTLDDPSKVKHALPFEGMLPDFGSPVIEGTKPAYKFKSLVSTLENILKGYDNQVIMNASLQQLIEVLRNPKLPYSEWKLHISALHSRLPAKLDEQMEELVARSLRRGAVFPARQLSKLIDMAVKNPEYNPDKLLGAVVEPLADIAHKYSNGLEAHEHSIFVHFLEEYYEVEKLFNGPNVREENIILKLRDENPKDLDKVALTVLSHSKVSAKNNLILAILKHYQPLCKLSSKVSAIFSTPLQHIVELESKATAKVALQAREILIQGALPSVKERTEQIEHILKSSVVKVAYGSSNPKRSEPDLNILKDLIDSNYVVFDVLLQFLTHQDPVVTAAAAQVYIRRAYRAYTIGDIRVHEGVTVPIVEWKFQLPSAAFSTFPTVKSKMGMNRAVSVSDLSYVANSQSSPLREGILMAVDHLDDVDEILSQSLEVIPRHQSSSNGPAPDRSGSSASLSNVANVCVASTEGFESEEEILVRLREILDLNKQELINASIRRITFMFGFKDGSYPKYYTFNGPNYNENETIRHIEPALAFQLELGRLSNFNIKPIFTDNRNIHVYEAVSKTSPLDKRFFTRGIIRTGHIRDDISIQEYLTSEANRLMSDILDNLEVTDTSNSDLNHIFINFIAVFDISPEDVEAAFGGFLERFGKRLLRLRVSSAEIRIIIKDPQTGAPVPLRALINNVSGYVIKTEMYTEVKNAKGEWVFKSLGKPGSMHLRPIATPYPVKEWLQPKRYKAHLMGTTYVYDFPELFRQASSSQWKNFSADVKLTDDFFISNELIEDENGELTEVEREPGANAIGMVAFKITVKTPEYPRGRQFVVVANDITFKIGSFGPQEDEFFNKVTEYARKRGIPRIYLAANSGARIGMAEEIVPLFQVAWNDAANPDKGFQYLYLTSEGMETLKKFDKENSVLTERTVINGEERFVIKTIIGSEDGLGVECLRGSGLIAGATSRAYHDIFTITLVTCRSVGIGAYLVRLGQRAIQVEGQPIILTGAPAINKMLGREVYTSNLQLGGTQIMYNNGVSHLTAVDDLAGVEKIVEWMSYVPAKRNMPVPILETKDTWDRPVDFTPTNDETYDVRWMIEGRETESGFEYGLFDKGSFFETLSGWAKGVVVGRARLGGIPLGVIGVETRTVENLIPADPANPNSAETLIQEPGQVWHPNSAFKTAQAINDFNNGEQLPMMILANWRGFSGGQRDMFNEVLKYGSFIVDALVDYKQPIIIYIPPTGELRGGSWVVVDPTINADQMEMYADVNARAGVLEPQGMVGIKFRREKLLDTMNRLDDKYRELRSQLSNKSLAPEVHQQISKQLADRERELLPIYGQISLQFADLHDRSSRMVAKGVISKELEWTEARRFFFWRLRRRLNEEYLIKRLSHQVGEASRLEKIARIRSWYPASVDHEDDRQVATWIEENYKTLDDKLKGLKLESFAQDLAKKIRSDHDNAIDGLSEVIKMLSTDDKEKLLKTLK
# human (hACC2), sequence (O00763 whole entry): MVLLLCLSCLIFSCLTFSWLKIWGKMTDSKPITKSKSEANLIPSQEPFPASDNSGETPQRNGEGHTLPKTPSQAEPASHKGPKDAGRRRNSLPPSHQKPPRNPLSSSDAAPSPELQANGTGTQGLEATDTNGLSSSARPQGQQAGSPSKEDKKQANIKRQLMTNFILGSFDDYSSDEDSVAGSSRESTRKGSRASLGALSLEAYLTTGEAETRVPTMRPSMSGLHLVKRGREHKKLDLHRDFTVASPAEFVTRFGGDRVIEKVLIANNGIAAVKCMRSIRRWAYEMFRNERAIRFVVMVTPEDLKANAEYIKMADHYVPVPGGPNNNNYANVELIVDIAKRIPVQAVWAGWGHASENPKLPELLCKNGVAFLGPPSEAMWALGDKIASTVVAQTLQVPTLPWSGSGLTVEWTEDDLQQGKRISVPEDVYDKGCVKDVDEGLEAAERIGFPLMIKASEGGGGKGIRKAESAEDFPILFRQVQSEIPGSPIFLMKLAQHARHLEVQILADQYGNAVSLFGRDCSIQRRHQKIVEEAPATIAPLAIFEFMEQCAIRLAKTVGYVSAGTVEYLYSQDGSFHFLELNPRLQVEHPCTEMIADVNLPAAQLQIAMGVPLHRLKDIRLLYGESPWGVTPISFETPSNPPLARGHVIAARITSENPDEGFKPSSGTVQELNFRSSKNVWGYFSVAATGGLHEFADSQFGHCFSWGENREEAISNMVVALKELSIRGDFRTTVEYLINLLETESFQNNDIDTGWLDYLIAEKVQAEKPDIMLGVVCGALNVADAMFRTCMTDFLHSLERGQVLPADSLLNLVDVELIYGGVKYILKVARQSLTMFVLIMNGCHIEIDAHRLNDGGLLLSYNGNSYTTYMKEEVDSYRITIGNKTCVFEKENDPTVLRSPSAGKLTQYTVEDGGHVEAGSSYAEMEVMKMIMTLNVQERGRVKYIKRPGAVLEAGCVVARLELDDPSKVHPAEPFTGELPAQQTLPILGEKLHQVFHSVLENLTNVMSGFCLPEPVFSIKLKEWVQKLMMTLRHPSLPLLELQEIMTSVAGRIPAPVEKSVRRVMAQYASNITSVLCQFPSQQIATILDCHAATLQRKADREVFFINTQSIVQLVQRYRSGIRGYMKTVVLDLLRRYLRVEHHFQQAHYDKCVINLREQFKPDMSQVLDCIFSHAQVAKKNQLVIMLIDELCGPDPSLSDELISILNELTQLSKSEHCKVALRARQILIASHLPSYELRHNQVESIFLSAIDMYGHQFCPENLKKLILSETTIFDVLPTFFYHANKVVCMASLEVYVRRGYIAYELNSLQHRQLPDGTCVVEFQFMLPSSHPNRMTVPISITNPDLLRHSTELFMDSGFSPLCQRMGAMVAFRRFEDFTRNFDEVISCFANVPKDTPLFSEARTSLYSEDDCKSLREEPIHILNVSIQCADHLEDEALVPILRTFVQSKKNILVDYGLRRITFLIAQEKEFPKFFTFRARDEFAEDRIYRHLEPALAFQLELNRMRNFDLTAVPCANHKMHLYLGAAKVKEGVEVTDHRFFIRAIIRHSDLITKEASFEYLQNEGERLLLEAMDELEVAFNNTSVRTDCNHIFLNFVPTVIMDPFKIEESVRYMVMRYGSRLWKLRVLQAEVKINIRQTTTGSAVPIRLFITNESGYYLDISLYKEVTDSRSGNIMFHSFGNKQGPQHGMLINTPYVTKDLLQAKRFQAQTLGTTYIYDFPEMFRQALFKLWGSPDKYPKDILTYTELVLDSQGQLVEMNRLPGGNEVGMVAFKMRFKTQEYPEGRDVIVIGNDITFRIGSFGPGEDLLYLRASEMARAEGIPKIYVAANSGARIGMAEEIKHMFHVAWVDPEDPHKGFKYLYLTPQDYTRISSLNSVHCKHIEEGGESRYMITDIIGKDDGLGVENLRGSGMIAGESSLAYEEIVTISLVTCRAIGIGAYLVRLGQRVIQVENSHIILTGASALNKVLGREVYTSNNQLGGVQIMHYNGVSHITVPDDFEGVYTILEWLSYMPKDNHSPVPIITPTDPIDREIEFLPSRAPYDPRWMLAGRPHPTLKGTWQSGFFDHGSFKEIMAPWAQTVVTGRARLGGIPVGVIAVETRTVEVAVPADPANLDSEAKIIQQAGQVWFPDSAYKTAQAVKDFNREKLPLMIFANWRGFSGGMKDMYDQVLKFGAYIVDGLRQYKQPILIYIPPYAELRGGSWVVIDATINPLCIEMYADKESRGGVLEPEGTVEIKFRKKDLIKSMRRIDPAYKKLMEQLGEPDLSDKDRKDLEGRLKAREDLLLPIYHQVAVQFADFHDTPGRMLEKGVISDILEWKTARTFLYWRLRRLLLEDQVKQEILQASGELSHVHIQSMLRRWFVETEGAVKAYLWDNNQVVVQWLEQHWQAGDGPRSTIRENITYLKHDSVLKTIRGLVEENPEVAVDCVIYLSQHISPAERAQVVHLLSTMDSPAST
smiles,measurement,setting,value
COc1ccc(F)cc1[C@H](Cn1c(=O)n(C(C)(C)C(=O)NC(C)C)c(=O)c2c(C)c(-n3nccn3)sc21)OCCC(C)=O [Compound I-104],IC50,fungal (fACC2); Table 2a,1 to 5 nM
same,IC50,"fungal (fACC2); Table 2b, additional results",1 to 5 nM
same,IC50,human (hACC2); Table 2a,1 to 5 nM
same,IC50,"human (hACC2); Table 2b, additional results",1 to 5 nM
same,MIC,C. krusei; [1],0.06 to 0.24 µg/mL
same,MIC,C. krusei; [2],0.25 to 1 µg/mL
same,MIC,C. albicans; [3],0.25 to 1 µg/mL
same,MIC,C. albicans; [4],0.25 to 1 µg/mL
same,MIC,C. parapsilosis; [5],0.25 to 1 µg/mL
same,MIC,C. parapsilosis; [6],0.25 to 1 µg/mL
COc1ccc(F)cc1[C@H](Cn1c(=O)n(C(C)(C)C(=O)NC(C)C)c(=O)c2c(C)c(-n3nccn3)sc21)OCCC(O)CO (stereo partly shown) [Compound I-220],IC50,"fungal (fACC2); Table 2b, additional results",1 to 5 nM
same,IC50,"human (hACC2); Table 2b, additional results",10 to 40 nM
same,MIC,C. krusei; [2],0.25 to 1 µg/mL
same,MIC,C. albicans; [4],0.25 to 1 µg/mL
same,MIC,C. parapsilosis; [6],0.25 to 1 µg/mL
COc1ccc(F)cc1[C@H](Cn1c(=O)n([C@@H](C)C(=O)NC(C)C)c(=O)c2c(C)c(-n3nccn3)sc21)OCC(C)(C)O [Compound I-172],IC50,fungal (fACC2); Table 2a,0.4 to 1 nM
same,IC50,"fungal (fACC2); Table 2b, additional results",0.3 to 1 nM
same,IC50,human (hACC2); Table 2a,5 to 10 nM
same,IC50,"human (hACC2); Table 2b, additional results",5 to 10 nM
same,MIC,"C. krusei; read-out: MIC, C. krusei ATCC 6258, Table 3b (additional results), 3 replicates, MIC recorded at 48 h",2.01 to 4 µg/mL
same,MIC,"C. albicans; read-out: MIC, C. albicans ATCC 90028, Table 3b (additional results), 3 replicates, MIC recorded at 48 h",1.01 to 2 µg/mL
same,MIC,"C. parapsilosis; read-out: MIC, C. parapsilosis ATCC 22019, Table 3b (additional results), 3 replicates, MIC recorded at 48 h",1.01 to 2 µg/mL
COc1ccccc1[C@H](Cn1c(=O)n(C(C)(C)C(=O)O)c(=O)c2c(C)c(-n3nccn3)sc21)OC1CCOCC1 [Compound I-96],IC50,fungal (fACC2); Table 2a,1 to 5 nM
same,IC50,"fungal (fACC2); Table 2b, additional results",1 to 5 nM
same,IC50,human (hACC2); Table 2a,1 to 5 nM
same,IC50,"human (hACC2); Table 2b, additional results",1 to 5 nM
same,MIC,C. krusei; [1],2.1 to 4 µg/mL
same,MIC,C. krusei; [2],2.01 to 4 µg/mL
same,MIC,C. albicans; [3],2.1 to 4 µg/mL
same,MIC,C. albicans; [4],1.01 to 2 µg/mL
same,MIC,C. parapsilosis; [5],2.1 to 4 µg/mL
same,MIC,C. parapsilosis; [6],2.01 to 4 µg/mL
COc1ccc(F)cc1[C@H](Cn1c(=O)n([C@H](C)C(=O)N(C)C(C)C)c(=O)c2c(C)c(-n3nccn3)sc21)OC1CCC(=O)CC1 [Compound I-164],IC50,fungal (fACC2); Table 2a,1 to 5 nM
same,IC50,"fungal (fACC2); Table 2b, additional results",1 to 5 nM
same,IC50,human (hACC2); Table 2a,5 to 10 nM
same,IC50,"human (hACC2); Table 2b, additional results",5 to 10 nM
same,MIC,C. krusei; [1],0.25 to 1 µg/mL
same,MIC,C. krusei; [2],0.25 to 1 µg/mL
same,MIC,C. albicans; [3],0.25 to 1 µg/mL
same,MIC,C. albicans; [4],0.25 to 1 µg/mL
same,MIC,C. parapsilosis; [5],0.25 to 1 µg/mL
same,MIC,C. parapsilosis; [6],1.01 to 2 µg/mL
COc1ccc(F)cc1[C@H](Cn1c(=O)n([C@H](C)C(=O)N2CCCC2)c(=O)c2c(C)c(-n3nccn3)sc21)OCC(C)(C)O [Compound I-175],IC50,fungal (fACC2); Table 2a,0.4 to 1 nM
same,IC50,"fungal (fACC2); Table 2b, additional results",0.3 to 1 nM
same,IC50,human (hACC2); Table 2a,5 to 10 nM
same,IC50,"human (hACC2); Table 2b, additional results",5 to 10 nM
same,MIC,C. krusei; [2],2.01 to 4 µg/mL
same,MIC,C. albicans; [4],0.25 to 1 µg/mL
same,MIC,C. parapsilosis; [6],1.01 to 2 µg/mL
"COc1ccccc1[C@H](Cn1c(=O)n(C(C)(C)C(N)=O)c(=O)c2c(C)c(-n3nccn3)sc21)OCCC#N [Compound I-137, 2-[1-[(2R)-2-(2-cyanoethoxy)-2-(2-methoxyphenyl)ethyl]-5-methyl-2,4-dioxo-6-(2H-1,2,3-triazol-2-yl)-1H,2H,3H,4H-thieno[2,3-d]pyrimidin-3-yl]-2-methylpropanamide]",IC50,fungal (fACC2); Table 2a,1 to 5 nM
same,IC50,"fungal (fACC2); Table 2b, additional results",1 to 5 nM
same,IC50,human (hACC2); Table 2a,1 to 5 nM
same,IC50,"human (hACC2); Table 2b, additional results",1 to 5 nM
same,MIC,C. krusei; [1],2.1 to 4 µg/mL
same,MIC,C. krusei; [2],2.01 to 4 µg/mL
same,MIC,C. albicans; [3],2.1 to 4 µg/mL
same,MIC,C. albicans; [4],2.01 to 4 µg/mL
same,MIC,C. parapsilosis; [5],2.1 to 4 µg/mL
same,MIC,C. parapsilosis; [6],2.01 to 4 µg/mL
COCCOc1ccc(F)cc1[C@H](Cn1c(=O)n(C(C)(C)C(=O)N2CCCC2)c(=O)c2c(C)c(-n3nccn3)sc21)OC1CCOCC1 [Compound I-109],IC50,fungal (fACC2); Table 2a,1 to 5 nM
same,IC50,"fungal (fACC2); Table 2b, additional results",1 to 5 nM
same,IC50,human (hACC2); Table 2a,1 to 5 nM
same,IC50,"human (hACC2); Table 2b, additional results",1 to 5 nM
same,MIC,C. krusei; [1],0.25 to 1 µg/mL
same,MIC,C. krusei; [2],1.01 to 2 µg/mL
same,MIC,C. albicans; [3],0.25 to 1 µg/mL
same,MIC,C. albicans; [4],0.25 to 1 µg/mL
same,MIC,C. parapsilosis; [5],0.25 to 1 µg/mL
same,MIC,C. parapsilosis; [6],1.01 to 2 µg/mL
COc1ccc(F)cc1[C@H](Cn1c(=O)n(C(C)(C)C(=O)NO)c(=O)c2c(C)c(-n3nccn3)sc21)OCCCO [Compound I-161],IC50,fungal (fACC2); Table 2a,0.4 to 1 nM
same,IC50,"fungal (fACC2); Table 2b, additional results",0.3 to 1 nM
same,IC50,human (hACC2); Table 2a,1 to 5 nM
same,IC50,"human (hACC2); Table 2b, additional results",1 to 5 nM
same,MIC,C. krusei; [1],2.1 to 4 µg/mL
same,MIC,C. krusei; [2],1.01 to 2 µg/mL
same,MIC,C. albicans; [3],2.1 to 4 µg/mL
same,MIC,C. albicans; [4],2.01 to 4 µg/mL
same,MIC,C. parapsilosis; [5],2.1 to 4 µg/mL
same,MIC,C. parapsilosis; [6],2.01 to 4 µg/mL

# Reference: patent US10800791B2, “Triazole ACC inhibitors and uses thereof” (Gilead Apollo, LLC, priority 2015, dated 2020)
